Values quoted from earlier work, collected in patent US6440947B1, “Method for treating occlusive peripheral vascular disease and coronary disease” (The Regents of the University of California, priority 1997, dated 2002).

Assays:
[1] = test system: human umbilical vein endothelial cell cultures; details: physiological concentrations

## Nc1ncnc2c1ncn2[C@@H]1O[C@H](CO)[C@@H](O)[C@H]1O [Adenosine, adenosine]
[1]
  effect on endothelial cell proliferation: stimulates proliferation
other
  half-life in vivo: less than 30 seconds
